Results on six compounds are retold here after US5001155A, “β-ionone derivative as antifungal agent” (University of Kentucky Research Foundation, priority 1989, dated 1991).

In brackets after ≈: the same amount, converted by molar mass.

One assay relates to P. tabacina conidia.
Assay: not given
The note with it: Phytochemistry 1972, vol. 11, pp. 2055-2063; cited from earlier work.
In the case of `CC(=O)/C=C/C1=C(C)CC(OC(=O)C(C)C)CC1(C)C` (stereo not drawn) [Quieson, 3-isobutyroyloxy-β-ionone, reference compound], the inhibition of germination entry is recorded as “an inhibitor of the germination of P. tabacina conidia”.

The subject of the next assay is Peronospora tabacina sporangia. Description: Inhibition of Sporangial Germination, Variant II (test 3.12). In kind it is cell-based. Particulars: 1% water agar, 10^6 s/ml, 18° C., 16 hours, read-out: ED50 (the source's name). On the procedure: 3.12. Variant II In another in vitro test, the substances (10^2 -10^-8 ppm) were added to 1% water agar and poured into petri dishes. After cooling, the media were inoculated with 100 μl of a suspension of sporangia (10^6 s/ml) and incubated at 18° C. during 16 hours. The germinated sporangia were counted under the microscope.
Consider `COCC(=O)O[C@@H]1CC(C)=C(/C=C/C(C)=O)C(C)(C)C1` [3(R)-methoxyacetoxy-β-ionone], for which the IC50 was 8e-05 ng/mL (≈ 0.000285 nM).

As to `CC(=O)/C=C/C1=C(C)C[C@@H](OC(=O)C(C)(C)C)CC1(C)C` [3(R)-pivaloyloxy-β-ionone], the IC50 is 0.001 ng/mL (≈ 0.00342 nM). As to `CCCCCC(=O)O[C@@H]1CC(C)=C(/C=C/C(C)=O)C(C)(C)C1` [3(R)-n-hexanoyloxy-β-ionone], the IC50 was 0.05 ng/mL (≈ 0.163 nM).

For the compound `CC(=O)/C=C/C1=C(C)CC(OC(=O)C(C)C)CC1(C)C` (stereo not drawn) [Quieson, 3-isobutyroyloxy-β-ionone, reference compound], the IC50 was found to be 0.4 ng/mL (≈ 1.44 nM). On the same count and under the same terms, next, `CCCC(=O)O[C@@H]1CC(C)=C(/C=C/C(C)=O)C(C)(C)C1` [3(R)-n-butyroyloxy-β-ionone, 3(R)-butyroyloxy-β-ionone]: 2e-05 ng/mL (≈ 7.18e-05 nM).

Turning to `CCOCC(=O)O[C@@H]1CC(C)=C(/C=C/C(C)=O)C(C)(C)C1` [3(R)-ethoxyacetoxy-β-ionone], the IC50 was 0.006 ng/mL (≈ 0.0204 nM).
